Test results reported in PMC8658889, “Seriniquinones as Therapeutic Leads for Treatment of BRAF and NRAS Mutant Melanomas” (Molecules, 2021).
Like-named read-outs stand apart in the source and are kept apart here.

Tests used:
[1] = design: method as in PMID 30783501; details: organic and aqueous media, cited from earlier work
[2] = system: FDH; experiment: MTT cytotoxicity assay; format: cell-based, Human; details: FDH primary fibroblasts, 72 h treatment
Source text: (§1) Human cell lines were used throughout this program. SK-MEL-19 (melanoma BRAF^V600E, NRAS^WT), SK-MEL-28 (melanoma BRAF^V600E, NRAS^WT), SK-MEL-147 (melanoma BRAF^WT, NRAS^Q61R), MRC-5 (fibroblasts), and primary fibroblast (FDH) were kindly provided by Professor Glaucia Santelli (University of São Paulo, Brazil). MCF7 (breast adenocarcinoma, ATCC HTB-22), and HCT-116 (colorectal carcinoma, ATCC 247) cells were obtained from American Type Culture Collection (ATCC) and deposited in the Cell Bank of Rio de Janeiro, Brazil. WM293A (metastatic melanoma BRAF^V600D, NRAS^WT), 501mel (metastatic melanoma BRAF^V600E; NRAS^G12D), and MM200 (melanoma BRAF^V600E, NRAS^WT) were kindly provided by Professor Sharon Prince, University of Cape Town, South Africa. All human melanoma and breast cell lines were cultivated with Dulbecco’s Modified Eagle Medium: Nutrient Mixture F-12 (Thermo Fisher Scientific, San Jose, CA, USA). MM200 and HCT-116 were maintained with Roswell Park Memorial Institute (RPMI) medium (Thermo Fisher Scientific, San Jose, CA, USA). Unless stated otherwise, media was supplemented with 10% fetal bovine serum (FBS) and 1% penicillin-streptomycin (Thermo Fisher Scientific, San Jose, CA, USA). Cells were incubated with 5% CO2 at 37 °C. When required, cells were detached from flask using trypsin-EDTA 0.05% (Thermo Fisher Scientific, San Jose, CA, USA).
(§2) Cytotoxic activity was evaluated by the transformation of 3-(4,5-dimethylthiazol-2-yl)-2,5-diphenyltetrazolium bromide (MTT; Thermo Fisher Scientific, San Jose, CA, USA) into formazan by viable cells. Cells were plated in a 96-well plate (1 × 10^4 cells/well) and, 24 h later, exposed to serial dilutions of the test compounds (from 0.00032 to 5.0 µM) for 24, 48, and 72 h. For each analysis, negative controls received 0.5% DMSO and positive control was delivered by doxorubicin (DOX; 0.05 to 10.0 µM). At the end of the incubation periods, the medium was replaced with fresh medium containing 0.5 mg/mL of MTT and supernatant was removed 3 h later. The plates were dried at 50 °C for 30 min and formazan was solubilized in DMSO (150 µL/well) for the absorbance measure at 570 nm on a plate reader (Thermo Fisher Scientific, San Jose, CA, USA). IC50 values (half-maximal inhibitory concentration) along with 95% CI (confidence intervals) were calculated by non-linear regression using GraphPad Prism 8.0 software (GraphPad Software, Inc., San Diego, CA, USA).

[3] = system: MM200; experiment: MTT cytotoxicity assay; format: cell-based, Human; details: for IC50: MM200, 72 h treatment, MTT
Source text: as §1, §2

[4] = system: WM293A; experiment: MTT cytotoxicity assay; format: cell-based, Human; details: for IC50: Homo sapiens, WM293A, 72 h treatment, MTT
Source text: as §1, §2

[5] = system: MCF7; experiment: MTT cytotoxicity assay; format: cell-based, Human; details: for IC50: Homo sapiens, MCF7, 72 h treatment, MTT
Source text: as §1, §2

[6] = system: SK-MEL-19; experiment: MTT cytotoxicity assay; format: cell-based, Human; details: for IC50: Homo sapiens, SK-MEL19, SK-MEL-19, 72 h treatment, MTT
Source text: as §1, §2

[7] = system: HCT-116; experiment: MTT cytotoxicity assay; format: cell-based, Human; details: for IC50: Homo sapiens, HCT-116, 72 h treatment, MTT
Source text: as §1, §2

[8] = system: 501mel; experiment: MTT cytotoxicity assay; format: cell-based, Human; details: for IC50: Homo sapiens, 501mel, 72 h treatment, MTT
Source text: as §1, §2

[9] = system: SK-MEL-28; experiment: Trypan blue exclusion test (cell viability); format: cell-based, Human; details: SK-MEL-28, 24-h treatment, 1.0, 2.5 or 5.0 µM
Procedure: (§3) Fifty thousand (5 × 10^4) cells in 1 mL of media were seeded in cell culture dishes and, 24 h later, treated with SQ1 or SQ2 (1.0, 2.5, and 5.0 µM), vehicle (DMSO) and doxorubicin (DOX, positive control) for 24 h. Cells were detached, stained with Trypan Blue solution 0.4% (1:10, v/v; Sigma-Aldrich, St. Louis, MO, USA) and counted in a Neubauer chamber under optical microscopy to determine concentrations of viable and non-viable cells.

[10] = system: SK-MEL-147; experiment: Trypan blue exclusion test (cell viability); format: cell-based, Human; details: for number of viable cells: SK-MEL-147, 24-h treatment, 1.0, 2.5 or 5.0 µM
Procedure: as §3

[11] = system: SK-MEL-147; experiment: Clonogenic assay; format: cell-based, Human; details: for decrease of cell proliferation expressed by colony area: SK-MEL-147, 24 h treatment, 6 days in drug-free medium
Procedure: […] (2.5 × 10^5) cells in 1 mL of media were seeded in cell culture dishes and, 24 h later, treated with SQ1 (0.3 µM and 0.6 µM for SK-MEL-28 and 0.9 µM and 1.8 µM for SK-MEL-147) or SQ2 (0.05 µM and 0.1 µM for SK-MEL-28 and 0.6 µM and 1.2 µM for SK-MEL-147) for 24 h. Doxorubicin (DOX; 1.4 µM for SK-MEL-28 and 0.8 µM for SK-MEL-147) was used as positive control and 0.5% DMSO as negative control.
After the cells were submitted to the treatment scheme (Section 4.6), adherent cells were collected, plated at 1 × 10^3 cell/plate on 35-mm plates and maintained in culture for 6 days in treatment-free medium. The medium was replaced every 2 days. Cells were then fixed and stained with a solution of 20% MeOH (Synth, Diadema, São Paulo, Brazil) and 0.5 g crystal violet (Sigma-Aldrich, St. Louis, MO, USA). Images were acquired using G:BOX Chemi XRQ (Syngene, Cambridge, UK) and quantified using the ImageJ program (ColonyArea; US National Institutes of Health, Bethesda, MD, USA).

[12] = system: melanoma cells; experiment: MTT cytotoxicity assay, melanoma panel; format: cell-based, Human
Source text: as §1, §2

[13] = MM200 versus FDH, 72-h IC50 ratio
[14] = MM200 versus MRC-5, 72-h IC50 ratio
[15] = WM293A versus FDH, 72-h IC50 ratio
[16] = WM293A versus MRC-5, 72-h IC50 ratio
[17] = MCF7 versus FDH, 72-h IC50 ratio
[18] = MCF7 versus MRC-5, 72-h IC50 ratio
[19] = SK-MEL-19 versus FDH, 72-h IC50 ratio
[20] = SK-MEL-19 versus MRC-5, 72-h IC50 ratio
[21] = HCT-116 versus FDH, 72-h IC50 ratio
[22] = HCT-116 versus MRC-5, 72-h IC50 ratio
[23] = 501mel versus FDH, 72-h IC50 ratio
[24] = 501mel versus MRC-5, 72-h IC50 ratio

## O=c1c2ccccc2c(=O)c2c1sc1c(=O)c3ccccc3c(=O)c12 [SQ1, seriniquinone]
[1]
  solubility: lack of solubility
[1]; listed as seriniquinone
  solubility: poor water-solubility
[2]
  IC50: 1200 nM
[2]; Homo sapiens, Fibroblast, 72 h
  IC50: 1150 nM
[3]; Homo sapiens, 72 h
  IC50: 1360 nM
[3]
  IC50: 1400 nM
[3]; [13]
  Selectivity Index (SI): 0.8
[3]; [14]
  Selectivity Index (SI): 0.5
[4]
  IC50: 1050 nM
[4]; [15]
  Selectivity Index (SI): 1.1
[4]; [16]
  Selectivity Index (SI): 0.6
[5]
  IC50: 3300 nM
[5]; [17]
  Selectivity Index (SI): 0.3
[5]; [18]
  Selectivity Index (SI): 0.2
[6]
  IC50: 60 nM
[6]; [19]
  Selectivity Index (SI): 19.2
[6]; [20]
  Selectivity Index (SI): 10.7
[7]; [21]
  Selectivity Index (SI): 1.1
[7]; [22]
  Selectivity Index (SI): 0.6
[7]
  IC50: 1000 nM
[8]; [23]
  Selectivity Index (SI): 3.6
[8]; [24]
  Selectivity Index (SI): 2.0
[8]
  IC50: 320 nM
[9]
  number of viable cells: significantly reducing the number of viable cells
[10]
  number of viable cells: significantly reducing the number of viable cells
[11]; SK-MEL-147, 24 h treatment at half IC50 and IC50, 6 days in drug-free medium
  reduction of the colony levels: greater than 50%
[11]
  decrease of cell proliferation expressed by colony area: 50%

## CC(C)(O)C(O)CCc1ccc2c(=O)c3sc4c(=O)c5ccccc5c(=O)c4c3c(=O)c2c1 (centres unmarked) [SQ2]
[1]
  solubility: improved solubility
[2]; Homo sapiens, Fibroblast, 72 h
  IC50: 1170 nM
[3]; Homo sapiens, 72 h
  IC50: 750 nM
[3]; [13]
  Selectivity Index (SI): 1.6
[3]; [14]
  Selectivity Index (SI): 2.1
[4]
  IC50: 740 nM
[4]; [15]
  Selectivity Index (SI): 1.6
[4]; [16]
  Selectivity Index (SI): 2.1
[5]
  IC50: 730 nM
[5]; [17]
  Selectivity Index (SI): 1.6
[5]; [18]
  Selectivity Index (SI): 2.2
[6]
  IC50: 40 nM
[6]; [19]
  Selectivity Index (SI): 29.3
[6]; [20]
  Selectivity Index (SI): 39.3
[7]; [21]
  Selectivity Index (SI): 5.1
[7]; [22]
  Selectivity Index (SI): 6.8
[7]
  IC50: 230 nM
[8]; [23]
  Selectivity Index (SI): 10.6
[8]; [24]
  Selectivity Index (SI): 14.3
[8]
  IC50: 110 nM
[12]; SK-Mel cells versus non-tumor cell lines
  selectivity indices to SK-Mel cells in relation to non-tumor cell lines: ≥ twofold
[12]; melanoma cells versus non-tumor cell lines MRC-5 or FDH, highest values reached
  selectivity for melanoma cells (SI ratio): 30–40
[9]
  number of viable cells: significantly reducing the number of viable cells
[10]
  number of viable cells: significantly reducing the number of viable cells
[10]; SK-MEL-147, 24 h, 2.5 and 5.0 µM
  proportion of non-viable cells: significantly higher
[11]
  decrease of cell proliferation expressed by colony area: 50%
